# Data from publication PMC11476419, “Analysis of Punicalin and Punicalagin Interaction with PDIA3 and PDIA1” (International Journal of Molecular Sciences, 2024).
# Legend:
# PDIA3 = biological target: T1, PDIA3 (Homo sapiens, UniProt P30101); assay: Insulin turbidity assay, disulfide reductase activity; type: biochemical; details: insulin substrate, PDIA3 1600 nM, reducing conditions
# T1 construct: The mature recombinant form (devoid of the N-terminal presence) of the human PDIA3 protein was expressed and purified; made in house
# T1 sequence (P30101 25-505): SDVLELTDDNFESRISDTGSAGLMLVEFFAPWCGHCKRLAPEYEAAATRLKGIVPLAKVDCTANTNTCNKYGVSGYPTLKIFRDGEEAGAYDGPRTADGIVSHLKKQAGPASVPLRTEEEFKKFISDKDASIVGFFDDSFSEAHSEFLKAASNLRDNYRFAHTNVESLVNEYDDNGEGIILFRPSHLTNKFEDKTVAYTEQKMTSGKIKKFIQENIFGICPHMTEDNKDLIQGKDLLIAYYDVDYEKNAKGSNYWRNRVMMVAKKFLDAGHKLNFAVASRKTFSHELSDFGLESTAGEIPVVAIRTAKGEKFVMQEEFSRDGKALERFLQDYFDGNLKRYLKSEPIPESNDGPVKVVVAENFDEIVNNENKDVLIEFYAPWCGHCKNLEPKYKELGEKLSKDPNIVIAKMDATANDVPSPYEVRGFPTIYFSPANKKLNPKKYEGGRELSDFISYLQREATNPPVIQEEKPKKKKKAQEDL
# Procedure: (§1) To further evaluate the inhibitory effect of punicalin and punicalagin on the enzymatic activity of the two proteins, we performed a different assay using insulin, a physiologically more appropriate substrate. The results obtained are reported in Figure 4 and show again a lesser inhibitory effect of punicalin compared to punicalagin, as observed with the glutathione-based assay.
# PDI disulfide reductase activity was assayed by measuring the reduction of insulin catalyzed by PDIs with DTT. A 50 μM stock solution of each PDI was reduced using TCEP (5 mM final concentration) for 90 min at room temperature. Aliquots of the stock solution were diluted in the incubation mixture (PDIA1 1.6 µM and PDIA3 3.2 µM) containing sodium phosphate buffer (100 mM sodium phosphate, 2 mM EDTA, pH 7.0) added with punicalin/punicalagin (concentration ranging from 0 to 50 µM) and incubated at 37 °C for 1 h. After incubation, an equal volume of the 2× reaction mixture (consisting of DTT 50 μM and human insulin 0.32 mM) was added. Protein activity was evaluated by monitoring the increase in turbidity of the solutions at 600 nm.
# (§2) In both assays, the inhibition constants were extrapolated by GraphPad Prism 8.0 software (GraphPad Software, San Diego, CA, USA), plotting the obtained data as logarithm dose–response curves.
# T98G cells [1] = assay: Cell viability by MTT assay; type: cell-based, human
# Procedure: (§3) The cell viability assay was used to evaluate the effect of punicalin as a PDI inhibitor. T98G and U87 MG glioblastoma cell lines were treated with increasing concentrations of punicalin, and the reduction in MTT substrate was determined after 24 h, 48 h, and 72 h. […] Here, we compared the ability of punicalin with that of punicalagin to prevent the growth of these cells (Figure 5).
# (§4) T98G and U-87 MG cells were seeded into 96-well plates (10.000 cells/well). The effect of punicalin, at the final concentration of 1 µM to 20 µM, was evaluated on cell viability after 24 h and 48 h of incubation. To assess cell viability, the enzymatic reduction of MTT (3-(4,5-dimethylthiazol-2-yl)-2,5-diphenyl-2H-tetrazolium bromide) (Sigma-Aldrich, Milan, Italy, cat. M2128) to MTT formazan was used. Cell cultures were further incubated for 2 h in culture medium containing 0.5 mg/mL MTT. After 2 h of incubation, the solution was removed and the blue MTT formazan product was dissolved in DMSO (Sigma-Aldrich, cat. D8418). After 30 min at room temperature, the absorbance of the formazan solution was spectrophotometrically read at 570 nm using an Appliskan® plate reader (Thermo Fisher Scientific, Monza, Italy).
# U87 MG cells [2] = assay: Cell viability by MTT assay; type: cell-based, human; details: 1 µM to 20 µM, 24 h, 48 h, 72 h
# Procedure: as §3, §4
# T98G cells [3] = assay: Cell counting (crystal violet); type: cell-based, human
# Procedure: (§5) The number of cells was evaluated after 24 h, 48 h, and 72 h of treatment with punicalin at the concentration of 5 µM and 20 µM (Figure 5b). […] However, an increase in the cell number occurred after 72 h of treatment with punicalin at a 5 µM concentration.
# (§6) T98G and U-87 MG cells were seeded into 12-well plates (70,000 cells/well) and treated with 5 µM and 20 µM concentrations of punicalin for 24 h, 48 h, and 72 h. At the end of incubation, the cells were washed with PBS (Sigma-Aldrich, cat. D8662), fixed with cold methanol for 20 min, stained with 0.1% crystal violet in methanol/PBS (ratio 1:4) at room temperature for 1 h, and washed again in PBS. To estimate the number of cells remaining in each well, the crystal violet was solubilized by adding a methanol/water solution (50% v/v) and the absorbance at 595 nm was measured.
# U87 MG cells [4] = assay: Cell counting (crystal violet); type: cell-based, human; details: 5 µM and 20 µM, 24 h, 48 h, 72 h
# Procedure: as §5, §6
# PDIA1 = biological target: T2, PDIA1 (Homo sapiens, UniProt P07237); assay: Insulin turbidity assay, disulfide reductase activity; type: biochemical; details: insulin substrate, PDIA1 800 nM, reducing conditions
# T2 construct: The mature human PDIA1 with an N-terminal His6x-tag was expressed and purified; His6 (N); made in house
# T2 sequence (P07237 18-508): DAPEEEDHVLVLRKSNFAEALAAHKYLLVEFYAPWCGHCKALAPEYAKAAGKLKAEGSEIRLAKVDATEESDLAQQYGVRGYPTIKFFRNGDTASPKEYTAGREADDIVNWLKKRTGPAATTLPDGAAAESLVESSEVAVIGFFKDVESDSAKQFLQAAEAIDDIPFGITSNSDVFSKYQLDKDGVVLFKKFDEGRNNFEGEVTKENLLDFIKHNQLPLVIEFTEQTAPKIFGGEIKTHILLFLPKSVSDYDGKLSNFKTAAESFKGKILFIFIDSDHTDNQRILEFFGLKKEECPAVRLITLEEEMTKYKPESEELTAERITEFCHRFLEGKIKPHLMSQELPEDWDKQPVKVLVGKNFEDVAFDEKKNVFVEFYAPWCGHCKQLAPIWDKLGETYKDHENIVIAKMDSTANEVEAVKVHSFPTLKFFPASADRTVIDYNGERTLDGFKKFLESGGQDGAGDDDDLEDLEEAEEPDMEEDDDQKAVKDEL
# Procedure: as §1
# PDI disulfide reductase activity was assayed by measuring the reduction of insulin catalyzed by PDIs with DTT. A 50 μM stock solution of each PDI was reduced using TCEP (5 mM final concentration) for 90 min at room temperature. […] After incubation, an equal volume of the 2× reaction mixture (consisting of DTT 50 μM and human insulin 0.32 mM) was added. Protein activity was evaluated by monitoring the increase in turbidity of the solutions at 600 nm.
# as §2
smiles,measurement,setting,value
"O=C1OC[C@H]2OC(O)[C@H](O)[C@@H](O)[C@@H]2OC(=O)c2cc(O)c(O)c(O)c2-c2c(O)c(O)c3oc(=O)c4c(c(O)c(O)c5oc(=O)c2c3c54)-c2c1cc(O)c(O)c2O (mixture of isomers) [Punicalin, punicalin]",IC50,PDIA3,28.7 µM
same,effect on cell viability (MTT),"T98G cells [1]; 1 µM to 20 µM, 24 h, 48 h, 72 h",concentration- and time-dependent decrease in cell viability
same,effect on cell viability,T98G cells [1]; 20 µM,significantly reduced the cell viability
same,effect on cell viability (MTT),U87 MG cells [2],the effect becomes evident only at the highest concentration
same,kind of effect on cells,T98G cells [3]; 5 µM,preferential cytostatic effect
same,kind of effect on cells,T98G cells [3]; 20 µM,cytotoxic
same,effect on cell number,"T98G cells [3]; 48 h, 5 µM and 20 µM",marked reduction in the T98G cell number
same,effect on cell number,U87 MG cells [4],the effect is evident only at the highest concentration used
same,IC50,PDIA1,> 250 µM
